Patent publication US12649750B2, “Macrocyclic compounds, compositions, and methods of using thereof” (Sionna Therapeutics Inc., priority 2022, dated 2026)

Columns and labels:
NBD1 = molecular target: T1, NBD1 (Homo sapiens, UniProt P13569); test: Aggregation analysis using differential static light scattering (DSLS), thermal stability of NBD1 (ΔTagg); format: binding; conditions: ΔTagg versus DMSO control, NBD1 0.2 mg/ml
T1 construct: Purified recombinant NBD1 was produced using previously described methods; made in house
How it was run: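 Differential static light scattering read from 25° C. to 70° C. every 0.5° C., ramp 1° C./min, on recombinant NBD1 (0.2 mg/ml; Tris/NaCl/MgCl2 buffer with 2 mM ATP, 2 mM DTT, pH 7.6, 1% glycerol) plus compound. Reported ΔTagg subtracts averaged DMSO Tagg from inflection-point Tagg; categories A ≤5, B >5-10, C >10-25° C.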

CFTR = molecular target: T2, CFTR (Homo sapiens, UniProt P13569, DEL508-508); test: TECC24 AUC fold over DMSO @10 μM, CFTR-mediated transepithelial chloride transport in CF-HBE cells; format: cell-based; conditions: test agent AUC divided by DMSO vehicle AUC, primary CF-HBE cells, ΔF508 homozygous donor, 48 hours incubation
T2 construct: Primary human bronchial epithelial cells from a ΔF508 homozygous CF donor; host or cells: primary human bronchial epithelial cells (CF-HBE), ΔF508 homozygous donor
How it was run: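 Value is ratio of test-agent to DMSO AUC of equivalent transepithelial Cl− current, integrated from forskolin (10 μM) stimulation to CFTR inhibitor-172 (20 μM) block, with benzamil 10 μM present. CF-HBE (ΔF508/ΔF508) cultures had 48 h compound exposure at 10 μM, 36.5° C before recording.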

T1 sequence (P13569 423-646 limits assumed): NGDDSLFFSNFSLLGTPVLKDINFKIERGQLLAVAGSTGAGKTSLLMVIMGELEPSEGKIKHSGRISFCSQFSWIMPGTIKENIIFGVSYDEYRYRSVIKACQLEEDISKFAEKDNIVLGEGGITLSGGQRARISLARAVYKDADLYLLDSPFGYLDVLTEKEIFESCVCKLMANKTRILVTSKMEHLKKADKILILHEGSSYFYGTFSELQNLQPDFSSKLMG
T2 sequence (P13569 with tags, fused parts or gaps DEL508-508): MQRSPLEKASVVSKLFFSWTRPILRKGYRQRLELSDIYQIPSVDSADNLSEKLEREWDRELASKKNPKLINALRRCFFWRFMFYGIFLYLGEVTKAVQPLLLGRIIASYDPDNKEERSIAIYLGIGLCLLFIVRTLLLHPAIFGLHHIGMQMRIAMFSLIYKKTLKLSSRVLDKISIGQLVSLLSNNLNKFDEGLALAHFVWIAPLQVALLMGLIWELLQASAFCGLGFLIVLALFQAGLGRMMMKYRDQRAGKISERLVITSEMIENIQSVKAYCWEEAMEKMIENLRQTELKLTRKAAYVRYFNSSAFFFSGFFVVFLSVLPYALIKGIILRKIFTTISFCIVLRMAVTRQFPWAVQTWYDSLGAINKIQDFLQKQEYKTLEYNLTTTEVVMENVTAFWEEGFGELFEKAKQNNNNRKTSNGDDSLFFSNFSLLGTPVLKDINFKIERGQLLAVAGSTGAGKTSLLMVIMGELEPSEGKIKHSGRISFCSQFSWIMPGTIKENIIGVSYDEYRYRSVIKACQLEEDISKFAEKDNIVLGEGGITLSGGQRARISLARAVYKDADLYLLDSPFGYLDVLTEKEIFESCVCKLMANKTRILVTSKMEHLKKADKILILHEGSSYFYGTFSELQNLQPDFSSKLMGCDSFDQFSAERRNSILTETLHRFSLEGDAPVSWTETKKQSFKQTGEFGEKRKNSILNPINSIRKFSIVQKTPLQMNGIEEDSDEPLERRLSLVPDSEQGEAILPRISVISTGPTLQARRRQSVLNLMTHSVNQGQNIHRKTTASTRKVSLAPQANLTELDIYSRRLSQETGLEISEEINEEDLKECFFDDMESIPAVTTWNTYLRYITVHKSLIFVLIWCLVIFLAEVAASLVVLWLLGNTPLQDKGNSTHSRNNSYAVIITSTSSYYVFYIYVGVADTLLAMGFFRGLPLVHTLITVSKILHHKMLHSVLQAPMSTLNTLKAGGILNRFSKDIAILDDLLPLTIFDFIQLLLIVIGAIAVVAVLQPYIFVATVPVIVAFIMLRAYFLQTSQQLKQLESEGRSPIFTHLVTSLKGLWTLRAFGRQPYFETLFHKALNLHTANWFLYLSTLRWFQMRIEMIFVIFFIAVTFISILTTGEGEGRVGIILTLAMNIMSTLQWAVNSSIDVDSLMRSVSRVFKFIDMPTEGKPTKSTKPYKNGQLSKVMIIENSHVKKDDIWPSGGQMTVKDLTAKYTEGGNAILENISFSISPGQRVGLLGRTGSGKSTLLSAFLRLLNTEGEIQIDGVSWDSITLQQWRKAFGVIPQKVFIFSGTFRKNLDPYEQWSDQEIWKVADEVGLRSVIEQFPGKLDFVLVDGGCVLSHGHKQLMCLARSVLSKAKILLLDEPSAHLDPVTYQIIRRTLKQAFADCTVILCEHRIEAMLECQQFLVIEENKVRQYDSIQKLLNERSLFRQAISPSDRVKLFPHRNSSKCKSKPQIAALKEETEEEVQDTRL

Structure (SMILES) | DSLS 3D (100 μM ΔT) (NBD1) | TECC (AUC, 10 μM) (CFTR)
CC1(C)CCCC(C)(c2cccc(OCC(=O)O)c2)c2cnc([nH]2)-c2cc(ccc2F)Oc2c(F)cc3[nH]ccc3c2CCS(=O)(=O)C1 (single isomer, unassigned) [Compound 54A, 2-[3-(22,28-difluoro-6,10,10-trimethyl-12,12-dioxo-24-oxa-12lambda6-thia-3,19,30-triazapentacyclo[23.3.1.12,5.015,23.016,20]triaconta-1(29),2,4,15,17,20,22,25,27-nonaen-6-yl)phenoxy]acetic acid] | C (a value greater than 10 °C and less than or equal to 25 °C is marked “C”) | C (a value between 20 and 80 is marked “C”)
CC1(C)CCCC(C)(c2cccc(OCC(=O)O)c2)c2cnc([nH]2)-c2cc(ccc2F)Oc2c(F)cc3[nH]ccc3c2CCS(=O)(=O)C1 (single isomer, unassigned) [Compound 54B, 2-[3-(22,28-difluoro-6,10,10-trimethyl-12,12-dioxo-24-oxa-12lambda6-thia-3,19,30-triazapentacyclo[23.3.1.12,5.015,23.016,20]triaconta-1(29),2,4,15,17,20,22,25,27-nonaen-6-yl)phenoxy]acetic acid] | B (a value above 5 °C and less than or equal to 10 °C is marked “B”) | A (a TECC value less than 12 is marked “A”)
Cn1nc2nc1C(C)(c1cccc(CCC(=O)O)c1)CCCC(C)(C)CS(=O)(=O)CCc1c(c(F)cc3[nH]ccc13)Oc1ccc(F)c-2c1 (single isomer, unassigned) [Compound 55A, 3-[3-(22,28-difluoro-4,6,10,10-tetramethyl-12,12-dioxo-24-oxa-12 lambda6-thia-3,4,19,30-tetrazapentacyclo[23.3.1.12,5.015,23.016,20]triaconta-1(29),2,5(30),15,17,20,22,25,27-nonaen-6yl)phenyl]propanoic Acid] | C (a value greater than 10 °C and less than or equal to 25 °C is marked “C”) | A (a TECC value less than 12 is marked “A”)
Cn1nc2nc1C(C)(c1cccc(CCC(=O)O)c1)CCCC(C)(C)CS(=O)(=O)CCc1c(c(F)cc3[nH]ccc13)Oc1ccc(F)c-2c1 (single isomer, unassigned) [Compound 55B, 3-[3-(22,28-difluoro-4,6,10,10-tetramethyl-12,12-dioxo-24-oxa-12 lambda6-thia-3,4,19,30-tetrazapentacyclo[23.3.1.12,5.015,23.016,20]triaconta-1(29),2,5(30),15,17,20,22,25,27-nonaen-6yl)phenyl]propanoic Acid] | B (a value above 5 °C and less than or equal to 10 °C is marked “B”) | A (a TECC value less than 12 is marked “A”)
CC1(C)CCCC(C)(c2cccc(CCC(=O)O)c2)c2nc(n[nH]2)-c2cc(ccc2F)Oc2c(F)cc3[nH]ccc3c2CCS(=O)(=O)C1 (single isomer, unassigned) [Compound 63A, 3-[3-(22,28-difluoro-6,10,10-trimethyl-12,12-dioxo-24-oxa-12λ6-thia-3,4,19,30-tetrazapentacyclo[23.3.1.12,5.015,23.016,20]triaconta-1(29),2,5(30),15,17,20,22,25,27-nonaen-6-yl)phenyl]propanoic Acid] | B (a value above 5 °C and less than or equal to 10 °C is marked “B”) | C (a value between 20 and 80 is marked “C”)
CC1(C)CCCC(C)(c2cccc(CCC(=O)O)c2)c2nc(n[nH]2)-c2cc(ccc2F)Oc2c(F)cc3[nH]ccc3c2CCS(=O)(=O)C1 (single isomer, unassigned) [Compound 63B, 3-[3-(22,28-difluoro-6,10,10-trimethyl-12,12-dioxo-24-oxa-12λ6-thia-3,4,19,30-tetrazapentacyclo[23.3.1.12,5.015,23.016,20]triaconta-1(29),2,5(30),15,17,20,22,25,27-nonaen-6-yl)phenyl]propanoic Acid] | C (a value greater than 10 °C and less than or equal to 25 °C is marked “C”) | C (a value between 20 and 80 is marked “C”)
Cc1cnn2c1-c1cc(ccc1F)Oc1c(F)cc3[nH]ccc3c1CCS(=O)(=O)CC(C)(C)CCCC2c1cccc(CCC(=O)O)c1 (single isomer, unassigned) [Compound 65A, 3-[3-(23,29-Difluoro-3,11,11-trimethyl-13,13-dioxo-25-oxa-13λ6-thia-5,6,20-triazapentacyclo[24.3.1.02,6.016,24.017,21]triaconta-1(30),2,4,16,18,21,23,26,28-nonaen-7-yl)phenyl]propanoic acid] | B (a value above 5 °C and less than or equal to 10 °C is marked “B”) | A (a TECC value less than 12 is marked “A”)
Cc1cnn2c1-c1cc(ccc1F)Oc1c(F)cc3[nH]ccc3c1CCS(=O)(=O)CC(C)(C)CCCC2c1cccc(CCC(=O)O)c1 (single isomer, unassigned) [Compound 65B, 3-[3-(23,29-Difluoro-3,11,11-trimethyl-13,13-dioxo-25-oxa-13λ6-thia-5,6,20-triazapentacyclo[24.3.1.02,6.016,24.017,21]triaconta-1(30),2,4,16,18,21,23,26,28-nonaen-7-yl)phenyl]propanoic acid] | C (a value greater than 10 °C and less than or equal to 25 °C is marked “C”) | A (a TECC value less than 12 is marked “A”)
CC(CC(=O)O)c1cccc(C2(C)CCOC(C)(C)CS(=O)(=O)CCc3c(c(F)cc4[nH]ccc34)Oc3ccc(F)c(c3)-c3nc2nn3C)c1 (single isomer, unassigned) [Compound 72A, 3-[3-(22,28-difluoro-3,6,10,10-tetramethyl-12,12-dioxo-9,24-dioxa-12lambda6-thia-3,4,19,30-tetrazapentacyclo-[23.3.1.12,5.015,23.016,20]triaconta-1(29),2(30),4,15,17,20,22,25,27-nonaen-6-yl)phenyl]-butanoic Acid] | C (a value greater than 10 °C and less than or equal to 25 °C is marked “C”) | A (a TECC value less than 12 is marked “A”)
CC(CC(=O)O)c1cccc(C2(C)CCOC(C)(C)CS(=O)(=O)CCc3c(c(F)cc4[nH]ccc34)Oc3ccc(F)c(c3)-c3nc2nn3C)c1 (single isomer, unassigned) [Compound 72B, 3-[3-(22,28-difluoro-3,6,10,10-tetramethyl-12,12-dioxo-9,24-dioxa-12lambda6-thia-3,4,19,30-tetrazapentacyclo-[23.3.1.12,5.015,23.016,20]triaconta-1(29),2(30),4,15,17,20,22,25,27-nonaen-6-yl)phenyl]-butanoic Acid] | A (an ΔTagg value less than or equal to 5 °C is marked “A”) | A (a TECC value less than 12 is marked “A”)
Cn1nc2nc1-c1cc(ccc1F)Oc1c(F)cc3[nH]ccc3c1CCS(=O)(=O)CC(C)(C)OCCC2(C)c1cccc(CCC(=O)O)c1 (single isomer, unassigned) [Compound 73A, 3-[3-(22,28-difluoro-3,6,10,10-tetramethyl-12,12-dioxo-9,24-dioxa-12lambda6-thia-3,4,19,30-tetrazapentacyclo-[23.3.1.12,5.015,23.016,20]triaconta-1(29),2(30),4,15,17,20,22,25,27-nonaen-6-yl)phenyl]-propanoic Acid] | C (a value greater than 10 °C and less than or equal to 25 °C is marked “C”) | A (a TECC value less than 12 is marked “A”)
